Patent US20240016882A1, “AUTOPHAGY-INHIBITING PEPTIDE AND ORGANIC ACID SALT THEREOF ADDRESSING ISSUES OF VASCULAR PERMEABILITY” (BIOTEMPT B.V., priority 2020, published 2024)
Like-named read-outs stand apart in the source and are kept apart here. Ends that are not written are not given here. Peptide text beside a SMILES is read from it.

Columns and labels:
[1] = Solubility / aggregation points of AQGV salts in 0.9% NaCl
Excerpt: (§1) At first attempts were made to mix a solution of the free base and an acid in order to achieve a concentrated DMSO solution of the salt and subsequently dilute this in water in order to determine solubility. […] It was decided to determine the solubility of the salts required by dilution of known amount of salts (not soluble) till a clear solution is obtained.

[2] = system: P42/p44MAPK/ERK1,2; test: Phosphorylation status after fMLP challenge of hPBMCs: P42/p44MAPK/ERK1,2; type: cell-based, human; details: hPBMC, 1 μM fMLP, 0-600 seconds
Description: (§2) Human-derived peripheral blood monocytes as a prototype cell-system for FPR-expression were isolated from healthy volunteers (hPBMCs) according to routine procedures^1 at University Medical Centre Groningen, The Netherlands. Subsequently PMBC were incubated with the Biotempt-supplied peptide AQGV (SEQ ID NO: 5) (which was freshly prepared as a 20 […] stock solution in bidistilled water) or treated with the vehicle for 10 min. Then hPMBCs were challenged with 1 μM fMLP for various time periods (see results FIGS. 4a, b, 4c and 4d). Each stimulus 0, 30, 60, 300 and 600 seconds at two concentrations AQGV (SEQ ID NO: 5), 20 ng/ml and 50 ng/ml and in six-fold. Following stimulation with fMLP for the indicated time periods, the phosphorylation status of p38MAPK, JNK, PKB, P42/p44MAPK/ERK1,2 and STAT3 was analysed 3. STAT3 was undetectable, JNK and P42/p44MAPK/ERK1,2.

[3] = Previous first in human study of AQGV; type: in vivo; details: up to i.v. doses of 30 mg/kg three times a day (90 mg/kg daily) for three days
[4] = system: p38 MAPK; test: Phosphorylation status after fMLP challenge of hPBMCs: p38 MAPK; type: cell-based, human; details: 1 μM fMLP
Description: as §2

[5] = Dose-escalating phase I studies: pharmacokinetics, safety and tolerability of AQGV; type: in vivo, humans (healthy subjects)
Description: Three double-blind, randomized, placebo-controlled, dose-escalating phase I studies in healthy subjects were conducted to evaluate safety, tolerability and pharmacokinetics of AQGV (SEQ ID NO: 5). In the first single dose study, 32 subjects were assigned to four single dosage groups (1, 3, 10 or 30 mg/kg). In the second multiple dosage study, 24 subjects were assigned to three dosing groups (10, 20 or 30 mg/kg) and received study medication thrice a day for three days. In the third continuous dosing study, 24 subjects were assigned to three dosing groups (15, 30 or 90 mg/kg/hour) to receive study medication by 2-hour continuous iv infusion. Pharmacokinetics (PK), safety and tolerability assessments were performed up to 14-days.

[6] = system: PKB (also known as AKT); test: Phosphorylation status after fMLP challenge of hPBMCs: PKB (AKT); type: cell-based, human; details: 1 μM fMLP
Description: as §2

[7] = system: JNK; test: Phosphorylation status after fMLP challenge of hPBMCs: JNK; type: cell-based, human; details: hPBMC, 1 μM fMLP, 0-600 seconds
Description: as §2

[8] = system: human cells; details: AJ Meijer et al Amino Acids 2015; cited from earlier work
[9] = system: autophagy; details: cited from earlier work
[10] = biological target: mTOR kinases (Homo sapiens, UniProt P42345); details: cited from earlier work
[11] = Excerpt: as §1
[12] = parameters: species or system male CD-1 mice; details: mouse, in vivo
Description: The present study, which was conducted by TNO Biosciences, Utrechtseweg, Netherlands, was designed to provide data on the distribution and metabolism of [14C]-AQGV (“AQGV” disclosed as SEQ ID NO: 5) (Ala-Gln-[1-^14C]Gly-Val (“AQGV” disclosed as SEQ ID NO: 5)) in male CD-1 mice following a single intravenous dose of 50 mg/kg. To this end, mice were sacrificed at […], and 6 and 24 hours after administration of radiolabeled AQGV (SEQ ID NO: 5), counts in various tissues were determined, and the radioactivity present in the urine and plasma were analyzed by HPLC.

[13] = cited from earlier work

## CC(C)[C@H](NC(=O)CNC(=O)[C@H](CCC(N)=O)NC(=O)[C@H](C)N)C(=O)O [AQGV-citrate] (H-AQGV-OH)
[1]; 0.9% NaCl
  solubility compared to AQGV-Ac: Higher solubility
[1]; 0.9% NaCl, listed as Citric acid
  appearance / behaviour of the concentrated solution: does not crystallize or aggregate but tend to form a highly viscous solution
[1]; 0.9% NaCl, listed as citric acid
  appearance / behaviour of the concentrated solution: remains clear but got very thick/viscous
[1]; in 0.5 mL 0.9% NaCl
  total amount dissolved: 2.75 mmol

## CC(C)[C@H](NC(=O)CNC(=O)[C@H](CCC(N)=O)NC(=O)[C@H](C)N)C(=O)O [AQGV] (H-AQGV-OH)
[2]
  effect on P42/p44MAPK/ERK1,2 phosphorylation status: not affected throughout
[3]
  tolerability: well tolerated
[4]; hPBMC
  effect on p38 MAPK kinase activated changes: reduces p38 MAPK kinase activated changes
[4]; hPBMC, 20 and 50 ng/ml AQGV
  time after FPR-stimulation at which effects on p38 MAPK are detected: 30 s
[4]; hPBMC, 600 seconds tested
  duration of effects on p38 signalling: 600 s
[5]; human, in vivo, iv, range over phase I studies, read-out: clearance rate
  clearance: 433 to 1020 mL/min/kg
[5]; human, in vivo, iv, range over phase I studies, read-out: estimated half life time
  half-life: 2 to 22 min
[5]; human, in vivo, iv, range over phase I studies, read-out: volume of distribution
  Vd: 4 to 33 L/kg
[5]; i.v., range over phase I studies
  more than proportional increases in exposure to the highest dosages: 126-137%
[5]; i.v., single, multiple and continuous dosing up to 90 mg/kg/hour
  tolerability: well tolerated
[5]; phase I studies
  serious adverse events: no serious adverse events
[5]; subjects receiving AQGV
  subjects reporting AEs with a possible relationship to study drug: 3 subjects
[6]; hPBMC
  effect on PI3K/AKT/mTOR activated induced changes: reduces PI3K/AKT/mTOR activated induced changes
[6]; hPBMC, 600 seconds tested
  duration of effects on PKB-mediated signalling: 600 s
[6]; hPBMC, bi-phasic pattern
  time after FPR-stimulation at which effects on PKB(AKT) follow: 300 s
[7]
  effect on JNK phosphorylation status: not affected throughout

## C[C@H](N)C(=O)O [L-Alanine]
[8]
  autophagic effects on human cells: most prominent autophagic effects
[9]
  Literature based activity autophagy: DOWN

## N=C(N)NCCC[C@H](N)C(=O)O [L-Arginine]
[9]
  Literature based activity autophagy: DOWN
[10]
  Literature based activity mTOR kinases: activate

## NC(=O)CC[C@H](N)C(=O)O [L-Glutamine]
[8]
  autophagic effects on human cells: most prominent autophagic effects
[9]
  Literature based activity autophagy: DOWN
[10]
  Literature based activity mTOR kinases: activate

## NCC(=O)O [L-Glycine]
[9]
  Literature based activity autophagy: DOWN

## N[C@@H](Cc1c[nH]cn1)C(=O)O [L-Histidine]
[10]
  Literature based activity mTOR kinases: down

## CC[C@H](C)[C@H](N)C(=O)O [L-Isoleucine]
[9]
  Literature based activity autophagy: DOWN
[10]
  Literature based activity mTOR kinases: activate

## CC(C)C[C@H](N)C(=O)O [L-Leucine]
[8]
  autophagic effects on human cells: most prominent autophagic effects
[9]
  Literature based activity autophagy: DOWN
[10]
  Literature based activity mTOR kinases: activate

## NCCCC[C@H](N)C(=O)O [L-Lysine]
[10]
  Literature based activity mTOR kinases: down

## CSCC[C@H](N)C(=O)O [L-Methionine]
[10]
  Literature based activity mTOR kinases: partial

## O=C(O)[C@@H]1CCCN1 [L-Proline]
[8]
  autophagic effects on human cells: most prominent autophagic effects
[10]
  Literature based activity mTOR kinases: activate

## C[C@@H](O)[C@H](N)C(=O)O [L-Threonine]
[10]
  Literature based activity mTOR kinases: down

## CC(C)[C@H](N)C(=O)O [L-Valine]
[10]
  Literature based activity mTOR kinases: activate

## Nc1ncnc2c1ncn2[C@@H]1O[C@H](COP(=O)(O)O)[C@@H](O)[C@H]1O [adenosine-monophosphate]
[1]; 0.9% NaCl
  appearance / behaviour of the concentrated solution: no clear solution could be obtained

## Nc1ncnc2c1ncn2[C@@H]1O[C@H](CO)[C@@H](O)[C@H]1O [adenosine]
[11]
  solubility in DMSO: did not dissolve in DMSO at all
[1]; 0.9% NaCl
  appearance / behaviour of the concentrated solution: no clear solution could be obtained

## CSCC[C@H](NC=O)C(=O)N[C@@H](CC(C)C)C(=O)N[C@@H](Cc1ccccc1)C(=O)O [fMLP, N-formyl-methionyl-leucyl-phenylalanine, reference compound]
[4]; p<0.05 from 60 to 600 sec
  changes in phosphorylation status of p38 MAPK caused by FPR-activation: rapidly induced and significant
[6]; p<0.05 at 600 sec
  changes in phosphorylation status of PKB caused by FPR-activation: rapidly induced and significant

## Ala-Gln-[1-^14C]Gly-Val [[14C]-AQGV]
[12]
  administered radioactivity exhaled as volatiles: About 50%
  time to full hydrolysis of the peptide after administration: 15 min

## VRLIVAVRIWRR-NH2 [IDR-1018]
[13]; prepared in sodium acetate
  aggregation: did not induce any appreciable aggregation
[13]; solutions containing large polyatomic anions: phosphate, benzoate, nitrate, citrate
  aggregation: suffer strongly from aggregation
[13]; solutions containing sulfate, bicarbonate, chloride, iodide anions
  aggregation: comparatively small amount of aggregation
[13]; sulfate, bicarbonate, chloride, iodide anions
  ion concentration at which aggregation was observed: above 200 mM
